According to patent publication US7414049B2, “4-oxo-2,3,4,5-tetrahydro-benzo[b][1,4]diazepine derivatives” (Hoffmann-La Roche Inc., priority 2006, dated 2008):
Values after ≈ are worked out from the molar mass of the structure shown.

Tests used:
[1] = Microsome incubation, metabolic stability (mouse); type: in vitro ADME; details: for microsomal CLint at 10 μM: pH 7.4, liver microsomes, test compound 10 μM, 37° C., read-out: Intrinsic clearance (mouse)
[2] = THESA assay, thermodynamic solubility; type: physicochemical; details: 22.5 °C, aqueous buffer, thermodynamic from solid, 50 mM phosphate buffer
Procedure: In addition, the compounds of the present invention have been tested in a THESA assay for determination of the thermodynamic solubility.
Approximately 2 mg of each compound was added in excess to a 50 mM phosphate buffer, at room temperature (22.5±1° C.). Each sample was placed in a microanalysis tube, which was sonicated for 1 h and agitated for 2 h. All suspensions were left overnight. At the next day all pHs were measured with a pH-meter and the samples filtered with a micronic filterplate (MSGVN2250) to separate the solid material from the solution. Then, all solutions were analyzed by HPLC. The calibration line was established by different concentrations of the compound in DMSO. From this regression equation the solubility of the compound was determined.

[3] = Microsome incubation, metabolic stability (human); type: in vitro ADME; details: for microsomal CLint at 10 μM: pH 7.4, human liver microsomes 2.0 mg prot/mL, test compound 10 μM, 37° C., read-out: Intrinsic clearance (human)
Procedure: The compounds of formula I of the present invention are further characterized by high metabolic stability. This parameter is a prerequisite for good bioavailability, which is necessary to obtain medicaments with acceptable in-vivo activity. The metabolic stability has been tested by the following method:
Incubation mixtures consisted of liver microsomes (rat 1.0 mg prot/mL or human 2.0 mg prot/mL), test compound 10 μM, MgCl2 (3.3 mM), and an NADPH regenerating system consisting of glucose-6-phosphate dehydrogenase, NADPH and glucose-6-phosphate (equivalent to 1 mM NADPH) in a total volume of 1.0 mL of potassium phosphate buffer 100 mM pH 7.4. Reactions were initiated by addition of the NADPH regenerating system at 37° C. At the time of 1, 5, 9, 13, 17, 21, 25, and 29 min a 5 μL aliquot was directly analysed on a HPLC-MS/MS system consisting of a HP 1100 quaternary pump with degasser and a PE-Sciex API-2000 MS/MS spectrometer. The analytical column was a Waters Symmetry Shield RP8 (2.1*50 mm with a […] particle size). A polarity non linear gradient from phase A (MeOH/Ac. Form. 1% 20/80) to phase B (MeOH) was applied for a total run time of 2 minutes at a flow rate of 0.25 mL/min. The PE-Sciex API-2000 MS/MS spectrometer was used for detection of the parent compound. In vivo metabolic clearance was predicted according to published procedures [Houston, Biochem. Pharmacol. 47:1469-1479 (1994)]. In brief, the intrinsic clearance (Clearance, see table below) is calculated from the measured in vitro half-life taking into account incubation volume and microsomal protein used for the in vitro incubation. The intrinsic clearance is expressed in terms of μl/min/mg microsomal protein. For in vivo extrapolations, the hepatic extraction ratio (E) was calculated. Here it is reported the % MAB value which is equal to 1-E. The MAB (maximal achievable bioavailability) values express the maximal bioavailability that one can achieve with the given clearance values.

[4] = maximal achievable bioavailability = 1-E, extrapolated from intrinsic clearance
[5] = comparison table, room temperature

| Compound | MAB (mouse) [1, 4] | microsomal CLint at 10 μM [1] | solubility thermodynamic ([2]; room temperature (22.5±1° C.)) | MAB (human) [3, 4] | microsomal CLint at 10 μM [3] | MAB (mouse) ([1]; comparison table) | solubility thermodynamic [2, 5] | MAB (human) ([3]; comparison table) |
| --- | --- | --- | --- | --- | --- | --- | --- | --- |
| CC(O)(C(=O)NCC(F)(F)C(F)(F)F)C(=O)N[C@H]1CN(C(=O)OCCO)c2ccccc2N(CCO)C1=O (single isomer, unassigned) [Example 14, (S)-5-(2-Hydroxy-ethyl)-3-[(S or R)-2-hydroxy-2-(2,2,3,3,3-pentafluoro-propylcarbamoyl)-propionylamino]-4-oxo-2,3,4,5-tetrahydro-benzo[b][1,4]diazepine-1-carboxylic acid 2-hydroxy-ethyl ester] | 72.1% | 12.3 µL/min/mg | 5180 µg/mL (≈ 9320 µM) | 53.3% | 13.6 µL/min/mg | – | – | – |
| CC(O)(C(=O)NCC(F)(F)C(F)(F)F)C(=O)N[C@H]1CN(C(=O)OCC(F)(F)F)c2cc(F)c(F)cc2NC1=O (single isomer, unassigned) [Example 1, (S)-7,8-Difluoro-3-[(R or S)-2-hydroxy-2-(2,2,3,3,3-pentafluoro-propylcarbamoyl)-propionylamino]-4-oxo-2,3,4,5-tetrahydro-benzo[b][1,4]diazepine-1-carboxylic acid 2,2,2-trifluoro-ethyl ester and (S)-7,8-Difluoro-3-[(S or R)-2-hydroxy-2-(2,2,3,3,3-pentafluoro-propylcarbamoyl)-propionylamino]-4-oxo-2,3,4,5-tetrahydro-benzo[b][1,4]diazepine-1-carboxylic acid 2,2,2-trifluoro-ethyl ester] | 58.5% | 22.4 µL/min/mg | 77 µg/mL (≈ 131 µM) | 99.7% | 0.05 µL/min/mg | – | – | – |
| CC(O)(C(=O)NCC(F)(F)C(F)(F)F)C(=O)N[C@H]1CN(C(=O)OCC(F)(F)F)c2ccccc2N(CC(F)(F)F)C1=O (single isomer, unassigned) [Example 11] | 74.9% | 10.6 µL/min/mg | – | 100.0% | – | 74.9% | 37 µg/mL (≈ 58.5 µM) | 100.0% |
| CC(O)(C(=O)NCC(F)(F)C(F)(F)F)C(=O)N[C@H]1CN(CC(F)(F)F)c2ccccc2N(CCO)C1=O (single isomer, unassigned) [Example 9, (R or S)-2-Hydroxy-N-[(S)-1-(2-hydroxy-ethyl)-2-oxo-5-(2,2,2-trifluoro-ethyl)-2,3,4,5-tetrahydro-1H-benzo[b][1,4]diazepin-3-yl]-2-methyl-N′-(2,2,3,3,3-pentafluoro-propyl)-malonamide] | 32.7% | 65.2 µL/min/mg | 1780 µg/mL (≈ 3240 µM) | 88.2% | 2.1 µL/min/mg | – | – | – |
| CC(O)(C(=O)NCC(F)(F)C(F)(F)F)C(=O)N[C@H]1CN(CCO)c2ccccc2N(CC(F)(F)F)C1=O (single isomer, unassigned) [Example 8, (R or S)-2-Hydroxy-N-[(S)-5-(2-hydroxy-ethyl)-2-oxo-1-(2,2,2-trifluoro-ethyl)-2,3,4,5-tetrahydro-1H-benzo[b][1,4]diazepin-3-yl]-2-methyl-N′-(2,2,3,3,3-pentafluoro-propyl)-malonamide] | 37.5% | 52.7 µL/min/mg | 2670 µg/mL (≈ 4850 µM) | 100.0% | – | – | – | – |
| CC(C)(C(=O)NCC(F)(F)C(F)(F)F)C(=O)N[C@H]1CN(C(=O)OCC(F)(F)F)c2ccccc2N(CC(F)(F)F)C1=O [reference compound] | – | – | – | – | – | 28.4% | 16 µg/mL (≈ 25.4 µM) | 19.6% |
| CC(O)(C(=O)NCC(F)(F)C(F)(F)F)C(=O)N[C@H]1CN(C(=O)OCC(F)(F)F)c2ccccc2N(CCO)C1=O (single isomer, unassigned) [Example 12, (S)-5-(2-Hydroxy-ethyl)-3-[(S or R)-2-hydroxy-2-(2,2,3,3,3-pentafluoro-propylcarbamoyl) -propionylamino]-4-oxo-2,3,4,5-tetrahydro-benzo[b][1,4]diazepine-1-carboxylic acid 2,2,2-trifluoro-ethyl ester] | 97.2% | 0.9 µL/min/mg | 3230 µg/mL (≈ 5430 µM) | 84.3% | 2.9 µL/min/mg | – | – | – |

Second part, the compound after the results:

| MAB (mouse) [1, 4] | microsomal CLint at 10 μM [1] | solubility thermodynamic ([2]; room temperature (22.5±1° C.)) | MAB (human) [3, 4] | microsomal CLint at 10 μM [3] | MAB (mouse) ([1]; comparison table) | solubility thermodynamic [2, 5] | MAB (human) ([3]; comparison table) | Compound |
| --- | --- | --- | --- | --- | --- | --- | --- | --- |
| 25.0% | 94.9 µL/min/mg | 124 µg/mL (≈ 232 µM) | 49.4% | 15.9 µL/min/mg | – | – | – | CC(O)(C(=O)NCC(F)(F)C(F)(F)F)C(=O)N[C@H]1CN(CCCC(F)(F)F)c2ccccc2NC1=O (single isomer, unassigned) [Example 6, (R or S)-2-Hydroxy-2-methyl-N-[(S)-4-oxo-1-(4,4,4-trifluoro-butyl)-2,3,4,5-tetrahydro-1H-benzo[b][1,4]diazepin-3-yl]-N′-(2,2,3,3,3-pentafluoro-propyl)-malonamide and (S or R)-2-Hydroxy-2-methyl-N-[(S)-4-oxo-1-(4,4,4-trifluoro-butyl)-2,3,4,5-tetrahydro-1H-benzo[b][1,4]diazepin-3-yl]-N′-(2,2,3,3,3-pentafluoro-propyl)-malonamide] |
| 85.5% | 5.4 µL/min/mg | 74 µg/mL (≈ 134 µM) | 100.0% | – | – | – | – | CC(O)(C(=O)NCC(F)(F)C(F)(F)F)C(=O)N[C@H]1CN(C(=O)OCC(F)(F)F)c2ccccc2NC1=O (single isomer, unassigned) [Example 10, (S)-3-[(R or S)-2-Hydroxy-2-(2,2,3,3,3-pentafluoro-propylcarbamoyl)-propionylamino]-4-oxo-2,3,4,5-tetrahydro-benzo[b][1,4]diazepine-1-carboxylic acid 2,2,2-trifluoro-ethyl ester and (S)-3-[(S or R)-2-Hydroxy-2-(2,2,3,3,3-pentafluoro-propylcarbamoyl)-propionylamino]-4-oxo-2,3,4,5-tetrahydro-benzo[b][1,4]diazepine-1-carboxylic acid 2,2,2-trifluoro-ethyl ester] |
| 10.8% | 262 µL/min/mg | 67 µg/mL (≈ 129 µM) | 45.5% | 18.6 µL/min/mg | – | – | – | CC(O)(C(=O)NCC(F)(F)C(F)(F)F)C(=O)N[C@H]1CN(CCC(F)(F)F)c2ccccc2NC1=O (single isomer, unassigned) [Example 5, (R or S)-2-Hydroxy-2-methyl-N-[(S)-4-oxo-1-(3,3,3-trifluoro-propyl)-2,3,4,5-tetrahydro-1H-benzo[b][1,4]diazepin-3-yl]-N′-(2,2,3,3,3-pentafluoro-propyl)-malonamide and (S or R)-2-Hydroxy-2-methyl-N-[(S)-4-oxo-1-(3,3,3-trifluoro-propyl)-2,3,4,5-tetrahydro-1H-benzo[b][1,4]diazepin-3-yl]-N′-(2,2,3,3,3-pentafluoro-propyl)-malonamide] |
| – | – | – | – | – | 21.8% | < 1 µg/mL | 43.1% | CC(C)(C(=O)NCC(F)(F)C(F)(F)F)C(=O)N[C@H]1CN(CC(F)(F)F)c2ccccc2NC1=O [reference compound] |
